According to patent US6719976B1, “Peptide-based immunotherapeutic agent for treating allergic diseases” (Meiji Milk Products Co., Ltd., priority 1996, dated 2004):

B1: SEQ NO: 2: joining p213-225 and p108-120 of Cry j 1, p182-200 and p79-98 of Cry j 2, p80-95 of Cry j 1, p66-80 of Cry j 1 (peptide, listed as Cryptomeria japonica)
chain: MKVTVAFNQFGPNRRVFIKRVSNVIIHGRRIDIFASKNFHLQKNTIGTGRRWKNNRIWLQFAKLTGFTLMGRRLKMPMYIAGYKTFDGRRVDGIIAAYQNPASWK
B2: SEQ NO: 1: multi-epitope peptide containing selected T cell epitopes of Cry j 1 and Cry j 2 joined via Arg-Arg (peptide, listed as Cryptomeria japonica)
chain: MKVTVAFNQFGPNRRVFIKRVSNVIIHGRRIDIFASKNFHLQKNTIGTGRRISLKLTSGKIASRRVDGIIAAYQNPASWK
B3: a-Arg-Arg-b-Arg-Arg-d-Arg-Arg-e-Arg-Arg-c (peptide)
peptide: KSMKVTVAFNQFGPNRRPCVFIKRVSNVIIHGRRAPRDSPNTDGIDIFASKNFHRRKDIKLSDISLKLTSGKIASCRRPCQPHFTFKVDGIIA
notes: produced by gene expression

Key:
[1] = tested on: Cry j 1-specific T cell line; test: Reactivity of Cry j 1-specific T cell line; assay type: cell-based, human; details: from patients with cedar pollinosis
From the text: (§1) Two peptides (Cha o 1 #8-Cry j 1 #22 core, Cha o 1 #32-Cry j 1 #22 core) were synthesized by joining Peptide No. 8 (p71-90: […] SEQ ID NO. 11) which is a T cell epitope of hinoki pollen allergen Cha o 1 (Japanese Patent Application N. Hei. 8-15327), or Peptide No. 32 ([…]: […] SEQ ID NO. 12) to Cry j 1 #22 core sequence “FIKRVSNVI”(SEQ ID NO. 7) obtained in Example 14 using a peptide synthesizer (PSSM-8, Shimadzu Seisakusho Ltd.). An RR sequence was inserted between Cha o 1 #8 and Cry j 1 #22 core and between Cha o 1 #32 and Cry j 1 #22 core, that is, Cha o 1 #8-Cry j 1 #22 core (SEQ NO: 4) and Cha o 1 #32-Cry j 1 #22 core (SEQ NO: 5).
(§2) A Cry j 1-specific T cell line and a Cha o 1-specific T cell line were prepared from the patients with cedar pollinosis and hinoki pollinosis, respectively. […] However, these T cell lines all react with the multi-epitope peptide of SEQ NO: 4 and with the multi-epitope peptide of SEQ NO: 5.

[2] = tested on: Cha o 1-specific T cell line; test: Reactivity of Cha o 1-specific T cell line; assay type: cell-based, human; details: from patients with hinoki pollinosis
From the text: as §1, §2

[3] = tested on: human IgE antibody; test: Reactivity of the multi-epitope peptides with human IgE antibody (fluorescence plate assay); assay type: binding; details: 21 tested patients with cedar pollinosis
Protocol: The six multi-epitope peptides (C.A.#1 through C.A.#6) obtained in Example 6 were dissolved in 0.2 M acetate buffer solution (pH 4.5). The solution was dispensed in quantities of 0.1 ml/well in a black plate (manufactured by Dainihon Pharmaceutical Co., Ltd.) then allowed to stand at 4° C. overnight. After the antigen solution was removed, the wells were washed three times with a washing solution and the serum (4-fold dilution) from 29 patients with cedar pollinosis and healthy subjects were each added to separate wells. The system was then reacted at 37° C. for 4 hours. After the sera were removed, the wells were washed three times with a washing solution then reacted with anti-human IgE antibody (made by Pharmacia Inc.) at room temperature overnight. After washing three times with a washing solution, a substrate solution containing 0.1 mM 4-methylumbelliferyl-, β-D-galacto-pyranoside/0.01 M phosphate buffer (pH 7.0), 0.1 M NaCl, 1 mM MgCl2, 0.1% NaN, and 0.1% BSA was added, and the solution was incubated at 37° C. for 2 hours. A solution of 0.1 M glycine/NaOH (pH 10.3) was added to the wells to terminate the reaction. Fluorescent intensity was measured using a fluorophotometer (Labsystems). For positive control to each multi-epitope peptide, biotin-labeled rabbit anti-d epitope IgG and peroxidase-labeled streptoavidin (made by Pierce Inc.) were reacted.

[4] = tested on: peripheral lymphocytes; test: Proliferation response of peripheral lymphocytes induced by multi-epitope peptide; assay type: cell-based, human
Protocol: Peripheral lymphocytes derived from the patients with cedar pollinosis or from healthy subjects were suspended in RPMI-1640 culture medium supplemented with 10% human sera. The suspension was distributed in each well of a 96-well culture plate with a round bottom in a concentration of 2.5×10^5 cells/200 μl. The multi-epitope peptide represented by SEQ NO: 1, either Cry j 1 or Cry j 2, was added to each well to a final concentration of 0.001 to 20 μg/ml of the multi-epitope peptide, 50 μg/ml of Cry j 1 or 2 μg/ml of Cry j 2. The plate was incubated for 6 days. After 0.5 μCi [^3H] thymidine was added to the medium, incubation was continued for a further 16 hours. After the cells were harvested on a glass filter using a cell harvester, the level of [^3H] thymidine taken up into the cells was determined using a liquid scintillation counter.
Peripheral lymphocytes from 17 patients with cedar pollinosis and two healthy subjects were stimulated by 10 μg/ml of the multi-epitope peptide to evaluate T cell response. […] In the 17 patients, a maximum [^3H] thymidine uptake of 9,652 cpm was observed. When [^3H] thymidine uptake of peripheral lymphocytes without antigen stimulation is regarded as 1, the uptake of [^3H] thymidine by peripheral lymphocytes in the presence of an antigen is expressed by a stimulation index (SI). Upon identification of T cell epitopes, SI>2 is regarded to be positive. Similarly, SI>2 is judged to be proliferation responsive to the peptide. […] From the results, the peptide-based immunotherapy is effective when administered to 76.5% of the cedar pollinosis patients.

[5] = tested on: T cell clones; test: Recognizing the T cell epitopes in the multi-epitope peptide C.A.#4 by T cell clones; assay type: cell-based, human; details: C.A.#4 10 μg/ml
Protocol: The antigenic peptide constituting the multi-epitope peptide C.A.#4 obtained in Example 6 was examined to determine if the antigenic peptide actually functions as a T cell epitope.
On a 96-well micro culture plate, a mixture of 5×10^4 cells of the autologous B cell line previously treated with mitomycin C and 2×10^4 cells of the T cell clone was incubated for 2 days in 0.2 ml 15% serum-supplemented RPMI-1640 medium, together with, as an antigen, either 50 μg/ml of Cry j 1 and 2 μg/ml of Cry j 2, each antigenic peptide constituting the multi-epitope peptide C.A.#4 or 10 μg/ml C.A.#4 multi-epitope peptide produced by gene expression. After 0.5 μCi [^3H] thymidine was added to the medium, incubation was continued for a further 16 hours. After the cells were harvested on a glass filter using a cell harvester, the level of [^3H] thymidine taken up into the cells was determined using a liquid scintillation counter.

| Molecule | reactivity of Cry j 1-specific T cell line [1] | reactivity of Cha o 1-specific T cell line [2] | also measured |
| --- | --- | --- | --- |
| IFSKNLNIKLNMPLYIAGNK [Cha o 1 #8] | does not react with | reacts with |  |
| SEQ NO: 4: Cha o 1 #8 joined to Cry j 1 #22 core with an RR sequence inserted (IFSKNLNIKLNMPLYIAGNKRRFIKRVSNVI; listed as Cryptomeria japonica) | react with | react with |  |
| FIKRVSNVI [Cry j 1 #22 core] | reacts with | does not react with |  |
| SEQ NO: 5: Cha o 1 #32 joined to Cry j 1 #22 core with an RR sequence inserted (SSGKNEGTNIYNNNEAFKVERRFIKRVSNVI; listed as Cryptomeria japonica) | react with | react with |  |
| SSGKNEGTNIYNNNEAFKVE [Cha o 1 #32] | does not react with | reacts with |  |
| B1 |  |  | reaction with the IgE antibody of the patients [3]: did not react; stimulation of peripheral lymphocyte samples ([4]; 21 tested patients with cedar pollinosis): stimulated all the peripheral lymphocyte samples |
| B2 |  |  | patients with proliferation response (SI>2) ([4]; 13 out of the 17 patients, 10 μg/ml): 76.5%; maximum [3H] thymidine uptake ([4]; 17 patients, 10 μg/ml): 9,652 cpm; proliferation response of peripheral lymphocytes ([4]; one patient and two healthy subjects, 0.001 to 20 μg/ml): no proliferation response; patients whose peripheral lymphocytes showed proliferation response ([4]; six patients with cedar pollinosis, 0.001 to 20 μg/ml): five out of six; T cell proliferation response of peripheral lymphocytes from healthy subjects ([4]; two healthy subjects, 10 μg/ml): No response to T cell proliferation was observed |
| B3 |  |  | proliferation response of T cell clone PB14-19 (recognizes Cry j2 p341-355) [5]: somewhat weak; proliferation response of the T cell clones recognizing the respective epitope ([5]; clones PB8-3, PB8-34, PB4-22, PB14-5, PB14-3): comparable to that of each of the peptides |
